Data published in patent US6635664B1, “Insecticide compositions and method for destroying insects” (priority 1999, dated 2003).
Where “and” joins values, the source holds several entries; their conditions need not be identical. Equal entries are not always repeated.

Assays:
silverleaf whiteflies [1] = assay: Test Example 1: spray test on cabbage seedlings infested with silverleaf whiteflies; type: in vivo; conditions: 50 ppm, total of adults and larvae on cabbage seedlings; for Number of surviving insects/pot after 8 days: 8 days after spray treatment; for Number of surviving insects/pot before: just before treatment
Procedure: (§1) Cabbage seedlings planted in 3 ounces plastic cup were placed in a net cage containing many living silverleaf whiteflies for 24 hours, so that many silverleaf whiteflies became parasitic on the cabbage seedlings. A designated amount of each of pyriproxyfen EC (commercial name, Lano emulsifiable concentrate : produced by Sumitomo Chemical Co., Ltd.), chlothianidine EC (emulsifiable concentrate prepared by mixing 10 parts of chlothianidine, 8 parts of polyoxyethylenealkyl aryl ether, 2 parts of sodium alkylarylsulfonate and 80 parts of xylene), and the present invention composition prepared according to formulation example 1 was diluted with water, and then sprayed over the cabbage seedlings with a spray gun. The number of silverleaf whiteflies (i.e., the total number of adults and larvae) surviving on the cabbage seedlings was examined just before and after 8 days from the treatment.

silverleaf whiteflies [2] = assay: Test Example 2: spray test on cabbage seedlings infested with silverleaf whiteflies (10:1 and 1:10 mixtures); type: in vivo; conditions: 10 ppm; just before treatment; total of adults and larvae on cabbage seedlings
Procedure: as §1, with “pyriproxyfen EC.” for “pyriproxyfen EC”, “emulsifiable concentrate:” for “emulsifiable concentrate :”, “prepared by mixing the pyriproxyfen EC with chlothianidine EC at 10:1 and 1:10 by weight” for “prepared according to formulation example 1”

| SMILES | Number of surviving insects/pot after 8 days (silverleaf whiteflies [1]) [insects/pot] | Number of surviving insects/pot before (silverleaf whiteflies [1]) [insects/pot] | Number of surviving insects/pot before (silverleaf whiteflies [2]) |
| --- | --- | --- | --- |
| CN/C(=N\[N+](=O)[O-])NCc1cnc(Cl)s1 [chlothianidine, (E)-1-(2-chlorothiazol-5-ylmethyl)-3-methyl-2-nitroguanidine] | 70 | 66 |  |
| CC(COc1ccc(Oc2ccccc2)cc1)Oc1ccccn1 (centres unmarked) [pyriproxyfen, 4-phenoxyphenyl 2-(2-pyridyloxy)propyl ether] | 21 | 65 | 81 insects/pot and 62 insects/pot |
